Measured values published in PubChem BioAssay AID1918993 (Molecular Pharmacology Branch, DTP, NCI, 2023).

System: 233499-124-R-J3-PDC complex spheroid growth
Experiment: Anticancer human tumor 233499-124-R-J3-PDC patient-derived colon adenocarcinoma cell line growth inhibition [AhR]
Settings: for IC50: curve of first compound; for viability, T/C: stronger effect = lower value; active means viability on the fitted dose curve at most 10% of control; inactive means the rest
Summary of the method: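 Agents were dosed in half-log steps down from roughly clinical Cmax, or from 10 microM where Cmax was unknown, alone and with AhR antagonists. Read-out: percent test/control growth of tumor spheroids containing HUVEC and MSC stromal cells.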

[1] = second compound 0.1 µM, first compound 0.00316 µM
[2] = second compound 0.1 µM, first compound 0.01 µM
[3] = second compound 0.1 µM, first compound 0.0316 µM
[4] = second compound 0.1 µM, first compound 0.1 µM
[5] = second compound 0.316 µM, first compound 0.00316 µM
[6] = second compound 0.316 µM, first compound 0.01 µM
[7] = second compound 0.316 µM, first compound 0.0316 µM
[8] = second compound 0.316 µM, first compound 0.1 µM
[9] = second compound 1 µM, first compound 0.00316 µM
[10] = second compound 1 µM, first compound 0.01 µM
[11] = second compound 1 µM, first compound 0.0316 µM
[12] = second compound 1 µM, first compound 0.1 µM
[13] = second compound 3.16 µM, first compound 0.00316 µM
[14] = second compound 3.16 µM, first compound 0.01 µM
[15] = second compound 3.16 µM, first compound 0.0316 µM
[16] = second compound 3.16 µM, first compound 0.1 µM
[17] = second compound 10 µM, first compound 0.00316 µM
[18] = second compound 10 µM, first compound 0.01 µM
[19] = second compound 10 µM, first compound 0.0316 µM
[20] = second compound 10 µM, first compound 0.1 µM
[21] = second compound 0.1 µM, first compound 0.316 µM
[22] = second compound 0.1 µM, first compound 1 µM
[23] = second compound 0.1 µM, first compound 3.16 µM
[24] = second compound 0.1 µM, first compound 10 µM
[25] = second compound 0.316 µM, first compound 0.316 µM
[26] = second compound 0.316 µM, first compound 1 µM
[27] = second compound 0.316 µM, first compound 3.16 µM
[28] = second compound 0.316 µM, first compound 10 µM
[29] = second compound 1 µM, first compound 0.316 µM
[30] = second compound 1 µM, first compound 1 µM
[31] = second compound 1 µM, first compound 3.16 µM
[32] = second compound 1 µM, first compound 10 µM
[33] = second compound 3.16 µM, first compound 0.316 µM
[34] = second compound 3.16 µM, first compound 1 µM
[35] = second compound 3.16 µM, first compound 3.16 µM
[36] = second compound 3.16 µM, first compound 10 µM
[37] = second compound 10 µM, first compound 0.316 µM
[38] = second compound 10 µM, first compound 1 µM
[39] = second compound 10 µM, first compound 3.16 µM
[40] = second compound 10 µM, first compound 10 µM
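Further: spheroids exposed to agents for seven days before reading.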

CC[C@@]1(O)C(=O)OCc2c1cc1n(c2=O)Cc2cc3c(CN(C)C)c(O)ccc3nc2-1 + Cc1ccccc1N=Nc1ccc(NC(=O)c2ccnn2C)c(C)c1
> 0.1 µM: IC50 (second compound 0.1 µM) | IC50 (second compound 0.316 µM) | IC50 (second compound 1 µM) | IC50 (second compound 3.16 µM) | IC50 (second compound 10 µM)
inactive: viability, T/C (second compound 0.1 µM, first compound 0.000316 µM) 88.5% | viability, T/C (second compound 0.1 µM, first compound 0.001 µM) 105% | viability, T/C [1] 113% | viability, T/C [2] 109% | viability, T/C [3] 79.4% | viability, T/C [4] 92.1% | viability, T/C (second compound 0.316 µM, first compound 0.000316 µM) 114% | viability, T/C (second compound 0.316 µM, first compound 0.001 µM) 110% | viability, T/C [5] 90.8% | viability, T/C [6] 98.8% | viability, T/C [7] 111% | viability, T/C [8] 91.2% | viability, T/C (second compound 1 µM, first compound 0.000316 µM) 97.9% | viability, T/C (second compound 1 µM, first compound 0.001 µM) 105% | viability, T/C [9] 89.5% | viability, T/C [10] 93.2% | viability, T/C [11] 87.3% | viability, T/C [12] 95% | viability, T/C (second compound 3.16 µM, first compound 0.000316 µM) 111% | viability, T/C (second compound 3.16 µM, first compound 0.001 µM) 105% | viability, T/C [13] 96.1% | viability, T/C [14] 98.2% | viability, T/C [15] 95.9% | viability, T/C [16] 87.9% | viability, T/C (second compound 10 µM, first compound 0.000316 µM) 102% | viability, T/C (second compound 10 µM, first compound 0.001 µM) 113% | viability, T/C [17] 95.5% | viability, T/C [18] 104% | viability, T/C [19] 101% | viability, T/C [20] 106%

COc1cc(C2c3cc4c(cc3C(OC3OC5COC(C)OC5C(O)C3O)C3COC(=O)C23)OCO4)cc(OC)c1O (stereo not given) + Cc1ccccc1N=Nc1ccc(NC(=O)c2ccnn2C)c(C)c1
> 10 µM: IC50 (second compound 0.1 µM) | IC50 (second compound 0.316 µM) | IC50 (second compound 1 µM) | IC50 (second compound 3.16 µM) | IC50 (second compound 10 µM)
inactive: viability, T/C [3] 104% | viability, T/C [4] 101% | viability, T/C [21] 96% | viability, T/C [22] 101% | viability, T/C [23] 95.7% | viability, T/C [24] 89.7% | viability, T/C [7] 99.7% | viability, T/C [8] 84.7% | viability, T/C [25] 107% | viability, T/C [26] 116% | viability, T/C [27] 114% | viability, T/C [28] 105% | viability, T/C [11] 95.9% | viability, T/C [12] 105% | viability, T/C [29] 98.7% | viability, T/C [30] 88.9% | viability, T/C [31] 99.1% | viability, T/C [32] 109% | viability, T/C [15] 93.4% | viability, T/C [16] 97.5% | viability, T/C [33] 93.7% | viability, T/C [34] 108% | viability, T/C [35] 107% | viability, T/C [36] 114% | viability, T/C [19] 106% | viability, T/C [20] 102% | viability, T/C [37] 107% | viability, T/C [38] 128% | viability, T/C [39] 106% | viability, T/C [40] 99.4%

COc1cccc2c1C(=O)c1c(O)c3c(c(O)c1C2=O)CC(O)(C(=O)CO)CC3OC1CC(N)C(O)C(C)O1 (stereo not given) + Cc1ccccc1N=Nc1ccc(NC(=O)c2ccnn2C)c(C)c1
inactive: viability, T/C [3] 87% | viability, T/C [4] 92.3% | viability, T/C [21] 102% | viability, T/C [22] 91.7% | viability, T/C [23] 83.3% | viability, T/C [24] 60.2% | viability, T/C [7] 80.4% | viability, T/C [8] 92.6% | viability, T/C [25] 95.9% | viability, T/C [26] 85.3% | viability, T/C [27] 72.2% | viability, T/C [28] 47.2% | viability, T/C [11] 97.2% | viability, T/C [12] 99% | viability, T/C [29] 102% | viability, T/C [30] 86.3% | viability, T/C [31] 81.6% | viability, T/C [32] 71.9% | viability, T/C [15] 88.3% | viability, T/C [16] 92.1% | viability, T/C [33] 97.7% | viability, T/C [34] 107% | viability, T/C [35] 86.8% | viability, T/C [36] 78% | viability, T/C [19] 95.2% | viability, T/C [20] 95.1% | viability, T/C [37] 94.4% | viability, T/C [38] 98.7% | viability, T/C [39] 96% | viability, T/C [40] 78.7%
8.8 µM: IC50 (second compound 0.316 µM)
> 10 µM: IC50 (second compound 0.1 µM) | IC50 (second compound 1 µM) | IC50 (second compound 3.16 µM) | IC50 (second compound 10 µM)

Nc1ncn(C2CC(O)C(CO)O2)c(=O)n1 (stereo not given) + Cc1ccccc1N=Nc1ccc(NC(=O)c2ccnn2C)c(C)c1
> 1 µM: IC50 (second compound 0.1 µM) | IC50 (second compound 0.316 µM) | IC50 (second compound 1 µM) | IC50 (second compound 3.16 µM) | IC50 (second compound 10 µM)
inactive: viability, T/C [1] 102% | viability, T/C [2] 104% | viability, T/C [3] 91.7% | viability, T/C [4] 98.6% | viability, T/C [21] 91.5% | viability, T/C [22] 111% | viability, T/C [5] 81% | viability, T/C [6] 91.6% | viability, T/C [7] 93.6% | viability, T/C [8] 82.9% | viability, T/C [25] 102% | viability, T/C [26] 84.5% | viability, T/C [9] 93.2% | viability, T/C [10] 104% | viability, T/C [11] 105% | viability, T/C [12] 107% | viability, T/C [29] 103% | viability, T/C [30] 113% | viability, T/C [13] 109% | viability, T/C [14] 97.3% | viability, T/C [15] 107% | viability, T/C [16] 92.5% | viability, T/C [33] 103% | viability, T/C [34] 97.4% | viability, T/C [17] 116% | viability, T/C [18] 114% | viability, T/C [19] 108% | viability, T/C [20] 106% | viability, T/C [37] 115% | viability, T/C [38] 114%
